We go through 34 compounds from patent publication US11667651B2, “Aminopyridine derivatives as phosphatidylinositol phosphate kinase inhibitors” (HiberCell, Inc., priority 2017, dated 2023).

pIC50: −log10 of the molar value. Some results are limits rather than exact numbers.

This assay addresses T1, PIP4K2A (Homo sapiens, UniProt P48426).
T1 sequence (P48426 1-406): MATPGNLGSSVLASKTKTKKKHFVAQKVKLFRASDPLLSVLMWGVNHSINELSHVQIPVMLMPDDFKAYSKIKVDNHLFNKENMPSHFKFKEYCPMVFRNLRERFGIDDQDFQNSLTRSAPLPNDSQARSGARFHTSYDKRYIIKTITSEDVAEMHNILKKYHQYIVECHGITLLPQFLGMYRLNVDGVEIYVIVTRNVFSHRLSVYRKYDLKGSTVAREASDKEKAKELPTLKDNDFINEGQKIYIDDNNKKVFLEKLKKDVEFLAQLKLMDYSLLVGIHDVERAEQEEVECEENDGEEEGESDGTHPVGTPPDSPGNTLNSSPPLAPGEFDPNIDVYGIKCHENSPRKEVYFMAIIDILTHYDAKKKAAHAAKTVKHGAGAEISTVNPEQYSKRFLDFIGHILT
Nature of the assay: Kinase Assay PIP4K2 A (Table 2). It is filed as biochemical. The arrangement: 4 nM PIP4K2A (full length protein, SignalChem); purchased SignalChem. Conditions: compounds listed under IC50 bins. How it is done:
Dilution series of the compounds were prepared in DMSO at 100 times the final assay concentration (n1=n0/3 in 10 points). The compounds were further diluted to three times the assay concentration in assay buffer (20 mM MOPS pH 7.2, 25 mM magnesium chloride, 0.005% Tween 20). 6 μL of the diluted compounds were added to a 384 well assay plate followed by 9 μL of a mix consisting of 4 nM PIP4K2A (full length protein, SignalChem) and 100 μM PI(5)P diC8 (Tebu-Bio). Enzyme and compounds were pre-incubated at room temperature for 15 minutes.
Then 3 μL of a solution containing 60 μM ATP (Promega) in assay buffer was added to the wells containing compound and enzyme and mixing was performed by pipetting several times. The reaction was incubated at room temperature for 1 h. Then 18 μL of ADP-Glo™ Reagent (Promega) was added to stop the kinase reaction and deplete the unconsumed ATP, mixing was performed by pipetting several times. The plate was incubated at room temperature for 40 minutes before addition of 36 μL of Kinase Detection Reagent (Promega) to convert ADP to ATP and introduce luciferase and luciferin to detect ATP. The reaction was incubated at room temperature for 40 minutes before the luminescence was measured in a in a Victor 3V 1420 multilabel counter (Perkin Elmer).
Percent inhibition of the compounds as compared to dimethyl sulfoxide treated control samples was calculated. Compound concentration versus percent inhibition were fitted to generate IC50 values.

Take `CN(C)C(=O)c1ccc(-c2ccc(Nc3cccnc3)nc2)cc1` [Example 1, N,N-dimethyl-4-(6-(pyridin-3-ylamino)pyridin-3-yl)benzamide]: the pIC50 (in general, −log10 of the IC50, conventionally taken in molar units) was 6.00 to 7.00. `Cc1cc(C(=O)N(C)C)ccc1-c1ccc(Nc2cccnc2)nc1` [Example 2, N,N,3-trimethyl-4-(6-(pyridin-3-ylamino)pyridin-3-yl)benzamide] gave a pIC50 of less than 6.00. `CN(C)C(=O)c1ccc(-c2ccc(Nc3cccnc3)nc2)cn1` [Example 3, N,N-dimethyl-6′-(pyridin-3-ylamino)-[3,3′-bipyridine]-6-carboxamide] showed a pIC50 of less than 6.00. For the compound `CN(C)C(=O)C#Cc1ccc(Nc2cccnc2)nc1` [Example 4, N,N-dimethyl-3-(6-(pyridin-3-ylamino)pyridin-3-yl)propiolamide], the pIC50 was less than 6.00. `CN(C)C(=O)c1ccc(-c2ccc(Nc3cccnc3)nc2)s1` [Example 5, N,N-dimethyl-5-(6-(pyridin-3-ylamino)pyridin-3-yl)thiophene-2-carboxamide] showed a pIC50 of less than 6.00. In the case of `CN(C)C(=O)C1CC=C(c2ccc(Nc3cccnc3)nc2)CC1` (stereo not shown) [Example 6, N,N-dimethyl-4-(6-(pyridin-3-ylamino)pyridin-3-yl)cyclohex-3-ene-1-carboxamide] it was less than 6.00; in that of `CN(C)C(=O)[C@H]1CC[C@H](c2ccc(Nc3cccnc3)nc2)CC1` [Example 7, (r,4r)-N,N-dimethyl-4-(6-(pyridin-3-ylamino)pyridin-3-yl)cyclohexane-1-carboxamide], less than 6.00; in that of `CN(C)C(=O)[C@H]1CC[C@@H](c2ccc(Nc3cccnc3)nc2)CC1` [Example 8, (1s,4s)-N,N-dimethyl-4-(6-(pyridin-3-ylamino)pyridin-3-yl)cyclohexane-1-carboxamide], less than 6.00. `CN(C)C(=O)c1ccc(-c2ccc(Nc3cccnc3)nc2)nc1` [Example 9, N,N-dimethyl-6′-(pyridin-3-ylamino)-[2,3′-bipyridine]-5-carboxamide]: the pIC50 was less than 6.00.

`Cc1cc(-c2ccc(Nc3cccnc3)nc2)ccc1C(=O)N(C)C` [Example 10, N,N,2-trimethyl-4-(6-(pyridin-3-ylamino)pyridin-3-yl)benzamide] had a pIC50 of less than 6.00. The compound `O=C(c1ccc(-c2ccc(Nc3cccnc3)nc2)cc1)N1CCC1` [Example 11, azetidin-1-yl(4-(6-(pyridin-3-ylamino)pyridin-3-yl)phenyl)methanone] gave a pIC50 of 7.00 to 8.00. On to `CN(C)C(=O)c1ccc(-c2ccc(Nc3cncc(N4CCCC4=O)c3)nc2)cc1F` [Example 12, 2-fluoro-N,N-dimethyl-4-(6-((5-(2-oxopyrrolidin-1-yl)pyridin-3-yl)amino)pyridin-3-yl)benzamide], for which the pIC50 is 7.00 to 8.00. The compound `CN(C)C(=O)c1ccc(-c2ccc(Nc3cncc(N4CCCC4=O)c3)nc2)c(F)c1` [Example 13, 3-fluoro-N,N-dimethyl-4-(6-((5-(2-oxopyrrolidin-1-yl)pyridin-3-yl)amino)pyridin-3-yl)benzamide] had a pIC50 of 7.00 to 8.00. For `CN(C)C(=O)c1cc(F)c(-c2ccc(Nc3cncc(N4CCCC4=O)c3)nc2)cc1F` [Example 14, 2,5-difluoro-N,N-dimethyl-4-(6-((5-(2-oxopyrrolidin-1-yl)pyridin-3-yl)amino)pyridin-3-yl)benzamide], the negative logarithm of the IC50 (pIC50) was 6.00 to 7.00. In turn, `Cc1cc(Nc2cccnc2)ncc1-c1ccc(C(=O)N(C)C)cc1` [Example 16, N,N-dimethyl-4-(4-methyl-6-(pyridin-3-ylamino)pyridin-3-yl)benzamide] gave a pIC50 of 6.00 to 7.00.

In the case of `CCc1cc(Nc2cccnc2)ncc1-c1ccc(C(=O)N(C)C)cc1` [Example 17, 4-(4-ethyl-6-(pyridin-3-ylamino)pyridin-3-yl)-N,N-dimethylbenzamide], the pIC50 was 6.00 to 7.00. In the case of `CN(C)C(=O)c1ccc(-c2cnc(Nc3cccnc3)cn2)cc1` [Example 18, N,N-dimethyl-4-(5-(pyridin-3-ylamino)pyrazin-2-yl)benzamide], the pIC50 was 6.00 to 7.00. Turning to `CN(C)C(=O)c1ccc(-c2cnc(Nc3cncc(N4CCCC4=O)c3)cn2)cc1` [Example 19, N,N-dimethyl-4-(5-((5-(2-oxopyrrolidin-1-yl)pyridin-3-yl)amino)pyrazin-2-yl)benzamide], the pIC50 was 6.00 to 7.00.

Compound `CN(C)C(=O)c1ccc(-c2cnc(Nc3cncc(N4CCCC4=O)c3)cn2)cc1F` [Example 20, 2-fluoro-N,N-dimethyl-4-(5-((5-(2-oxopyrrolidin-1-yl)pyridin-3-yl)amino)pyrazin-2-yl)benzamide] showed a pIC50 of 6.00 to 7.00. As for `CN(C)C(=O)c1ccc(-c2cnc(Nc3cncc(N4CCCC4=O)c3)cn2)c(F)c1` [Example 21, 3-fluoro-N,N-dimethyl-4-(5-((5-(2-oxopyrrolidin-1-yl)pyridin-3-yl)amino)pyrazin-2-yl)benzamide], the figure is 6.00 to 7.00. As for `CN(C)C(=O)c1cc(F)c(-c2cnc(Nc3cncc(N4CCCC4=O)c3)cn2)cc1F` [Example 22, 2,5-difluoro-N,N-dimethyl-4-(5-((5-(2-oxopyrrolidin-1-yl)pyridin-3-yl)amino)pyrazin-2-yl)benzamide], the figure is less than 6.00.

`CN(C)C(=O)c1ccc(-c2cnc(Nc3cncc(N4CCN(Cc5ccccc5)C4=O)c3)cn2)cc1` [Example 23, 4-(5-((5-(3-benzyl-2-oxoimidazolidin-1-yl)pyridin-3-yl)amino)pyrazin-2-yl)-N,N-dimethylbenzamide] gave a pIC50 of 8.00 to 9.00. As for `CN(C)C(=O)c1ccc(-c2ccc(Nc3cncc(N(C)S(C)(=O)=O)c3)nc2)cc1` [Example 24, N,N-dimethyl-4-(6-((5-(N-methylmethylsulfonamido)pyridin-3-yl)amino)pyridin-3-yl)benzamide], the figure is 7.00 to 8.00. In turn, `CN(C)C(=O)c1ccc(-c2ccc(Nc3cncc(N(C)S(=O)(=O)C4CC4)c3)nc2)cc1` [Example 25, N,N-dimethyl-4-(6-((5-(N-methylcyclopropanesulfonamido)pyridin-3-yl)amino)pyridin-3-yl)benzamide] showed a pIC50 of 7.00 to 8.00. Consider `CC(C)S(=O)(=O)N(C)c1cncc(Nc2ccc(-c3ccc(C(=O)N(C)C)cc3)cn2)c1` [Example 26, N,N-dimethyl-4-(6-((5-(N-methylpropan-2-ylsulfonamido)pyridin-3-yl)amino)pyridin-3-yl)benzamide], for which the negative-log IC50 (pIC50) is 7.00 to 8.00. As for `CC(C)N(c1cncc(Nc2ccc(-c3ccc(C(=O)N(C)C)cc3)cn2)c1)S(C)(=O)=O` [Example 27, 4-(6-((5-(N-isopropylmethylsulfonamido)pyridin-3-yl)amino)pyridin-3-yl)-N,N-dimethylbenzamide], the figure is 6.00 to 7.00; as for `CN(C)C(=O)c1ccc(-c2ccc(Nc3cncc(N(C4CC4)S(C)(=O)=O)c3)nc2)cc1` [Example 28, 4-(6-((5-(N-cyclopropylmethylsulfonamido)pyridin-3-yl)amino)pyridin-3-yl)-N,N-dimethylbenzamide], 7.00 to 8.00. In turn, `CN(C)C(=O)c1ccc(-c2ccc(Nc3cncc(C#N)c3)nc2)cc1` [Example 30, 4-(6-((5-cyanopyridin-3-yl)amino)pyridin-3-yl)-N,N-dimethylbenzamide] showed a pIC50 of 6.00 to 7.00. Compound `CC(=O)Nc1cncc(Nc2ccc(-c3ccc(C(=O)N(C)C)cc3)cn2)c1` [Example 31, 4-(6-((5-acetamidopyridin-3-yl)amino)pyridin-3-yl)-N,N-dimethylbenzamide] had a pIC50 of 7.00 to 8.00. Take `CN(C)C(=O)c1ccc(-c2ccc(Nc3cncnc3)nc2)cc1` [Example 32, N,N-dimethyl-4-(6-(pyrimidin-5-ylamino)pyridin-3-yl)benzamide]: the pIC50 is 6.00 to 7.00. Compound `Cc1ncc(Nc2ccc(-c3ccc(C(=O)N(C)C)cc3)cn2)cn1` [Example 33, N,N-dimethyl-4-(6-((2-methylpyrimidin-5-yl)amino)pyridin-3-yl)benzamide] gave a negative logarithm of the IC50 (pIC50) of less than 6.00.

Take `COc1ncc(Nc2ccc(-c3ccc(C(=O)N(C)C)cc3)cn2)cn1` [Example 34, 4-(6-((2-methoxypyrimidin-5-yl)amino)pyridin-3-yl)-N,N-dimethylbenzamide]: the pIC50 was 6.00 to 7.00. Regarding `Cc1ncccc1Nc1ccc(-c2ccc(C(=O)N(C)C)cc2)cn1` [Example 35, N,N-dimethyl-4-(6-((2-methylpyridin-3-yl)amino)pyridin-3-yl)benzamide], the pIC50 is less than 6.00.

In the case of `CN(C)C(=O)c1ccc(-c2ccc(Nc3cnccn3)nc2)cc1` [Example 36, N,N-dimethyl-4-(6-(pyrazin-2-ylamino)pyridin-3-yl)benzamide], the pIC50 was less than 6.00.
